Data taken from US20250127904A1, “SIGLEC LIGANDS, CONJUGATES, AND METHODS OF USE THEREOF” (Osprey Biopharmaceuticals, Inc., priority 2023, published 2025).

How the values were obtained:
[1] = molecular target: T1, biotinylated mouse siglec-2-Fc-Avi (Mus musculus, UniProt P35329); test: SPR binding to mouse siglec-2/CD22; conditions: steady-state analysis, read-out: Mouse CD22 affinity
T1 construct: made in house
T1 sequence (P35329 22-708 limits assumed): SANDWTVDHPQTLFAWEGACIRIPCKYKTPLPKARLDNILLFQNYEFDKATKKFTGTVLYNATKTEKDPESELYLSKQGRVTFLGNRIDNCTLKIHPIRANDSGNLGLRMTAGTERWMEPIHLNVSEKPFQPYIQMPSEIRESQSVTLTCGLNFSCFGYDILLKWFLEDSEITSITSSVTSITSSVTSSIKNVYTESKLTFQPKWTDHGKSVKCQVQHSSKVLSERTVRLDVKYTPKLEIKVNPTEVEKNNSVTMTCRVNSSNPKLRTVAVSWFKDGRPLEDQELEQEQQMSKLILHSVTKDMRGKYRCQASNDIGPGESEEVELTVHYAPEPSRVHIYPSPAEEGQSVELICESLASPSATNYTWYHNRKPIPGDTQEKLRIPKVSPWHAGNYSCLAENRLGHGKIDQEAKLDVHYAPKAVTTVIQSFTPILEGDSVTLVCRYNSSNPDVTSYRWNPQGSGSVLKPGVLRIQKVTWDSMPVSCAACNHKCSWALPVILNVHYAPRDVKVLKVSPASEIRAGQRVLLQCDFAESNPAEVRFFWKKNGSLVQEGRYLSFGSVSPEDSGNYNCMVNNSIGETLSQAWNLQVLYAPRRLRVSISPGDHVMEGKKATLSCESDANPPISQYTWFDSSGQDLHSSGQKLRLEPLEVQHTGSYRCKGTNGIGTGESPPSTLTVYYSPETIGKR
Method: (§1) The following proteins were used for CD22 ligand binding: biotinylated human siglec-2/CD22 protein-His-Avitag (Acro Biosystems, Cat #SI2-H82E3), biotinylated mouse siglec-2-Fc-Avi (in-house production), and recombinant cynomolgus siglec-2/CD22 His-tag (R&D systems, Cat #9864-SL-050). Prior to immobilization, CD22 proteins were treated with SialoExo (Genovis, Cat #G1-SM1-020) for 4 hours at 37° C. to remove native sialic acid residues.
(§2) Capture of biotinylated CD22 constructs was performed using a Cytiva SA chip (BR100398) on a Biacore 8K instrument. Human siglec 2 was immobilized on channels 1-4 and mouse siglec 2 on channels 5-8 on the active flow cell (2) and the reference flow cell (1) was immobilized with biotinylated human FGFR2 Fc Avi, an unrelated protein, to account for any nonspecific binding. Human siglec 2 and Mouse siglec 2 were diluted in running buffer to 20 μg/mL and injected on the active flow cell (2) for 300 seconds at 5 μL/min, yielding about 3500 RU of captured constructs.
(§3) Binding experiments of siglec-ligand conjugated proteins or Siglec ligand compounds were performed on the surfaces prepared above in 10 mM HEPES, 150 mM NaCl, 0.05% Tween-20, pH 7.5, 1% DMSO as the running buffer. Compounds were serially diluted in running buffer from 50 μM to 97.6 nM and injected over both the reference and active flow cells for 90 seconds at 30 μL/min. The compounds were then allowed to dissociate from the surface for 120 seconds. No regeneration was required as the compounds completely dissociated from the surface after 30 seconds. Solvent correction was performed using 0.5, 1, 1.5, and 2% DMSO spike into running buffer without DMSO. Data was analyzed using steady-state analysis in Biacore Insight Evaluation Software, version 3.0.

[2] = molecular target: T2, biotinylated human siglec-2/CD22 protein-His-Avitag (Homo sapiens, UniProt P20273); test: SPR binding to human siglec-2/CD22; conditions: steady-state analysis, read-out: Human CD22 affinity
T2 construct: purchased Acro Biosystems SI2-H82E3
T2 sequence (P20273 20-847): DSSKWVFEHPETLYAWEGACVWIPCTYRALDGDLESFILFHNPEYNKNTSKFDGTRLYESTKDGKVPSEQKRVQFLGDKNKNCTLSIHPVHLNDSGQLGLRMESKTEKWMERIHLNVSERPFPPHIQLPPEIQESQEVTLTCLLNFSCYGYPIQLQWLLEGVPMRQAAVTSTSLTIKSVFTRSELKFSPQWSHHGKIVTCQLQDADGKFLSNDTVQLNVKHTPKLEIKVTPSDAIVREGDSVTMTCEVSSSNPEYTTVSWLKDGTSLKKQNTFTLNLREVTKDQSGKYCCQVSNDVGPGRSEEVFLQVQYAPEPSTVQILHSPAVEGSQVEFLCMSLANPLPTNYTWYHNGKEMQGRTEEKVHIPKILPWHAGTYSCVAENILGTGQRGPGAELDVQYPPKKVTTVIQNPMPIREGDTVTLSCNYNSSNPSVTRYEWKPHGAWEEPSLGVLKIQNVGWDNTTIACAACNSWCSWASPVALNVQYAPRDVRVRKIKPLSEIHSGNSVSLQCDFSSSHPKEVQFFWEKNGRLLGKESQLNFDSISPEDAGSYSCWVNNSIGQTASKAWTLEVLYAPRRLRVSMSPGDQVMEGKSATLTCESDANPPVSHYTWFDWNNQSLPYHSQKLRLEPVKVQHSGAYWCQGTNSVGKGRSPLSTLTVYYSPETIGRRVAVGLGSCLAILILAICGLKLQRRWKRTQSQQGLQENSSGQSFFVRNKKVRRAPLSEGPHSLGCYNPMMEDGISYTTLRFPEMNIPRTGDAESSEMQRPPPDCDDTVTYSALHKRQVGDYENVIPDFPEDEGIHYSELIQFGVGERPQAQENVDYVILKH
Method: as §1, §2, §3

[3] = molecular target: recombinant cynomolgus siglec-2/CD22 His-tag (Macaca fascicularis, UniProt A0A2K5WCZ6); test: SPR binding to cynomolgus siglec-2/CD22; conditions: steady-state analysis, read-out: Cyno CD22 affinity
Sequence of recombinant cynomolgus siglec-2/CD22 His-tag (A0A2K5WCZ6 entry or part of it): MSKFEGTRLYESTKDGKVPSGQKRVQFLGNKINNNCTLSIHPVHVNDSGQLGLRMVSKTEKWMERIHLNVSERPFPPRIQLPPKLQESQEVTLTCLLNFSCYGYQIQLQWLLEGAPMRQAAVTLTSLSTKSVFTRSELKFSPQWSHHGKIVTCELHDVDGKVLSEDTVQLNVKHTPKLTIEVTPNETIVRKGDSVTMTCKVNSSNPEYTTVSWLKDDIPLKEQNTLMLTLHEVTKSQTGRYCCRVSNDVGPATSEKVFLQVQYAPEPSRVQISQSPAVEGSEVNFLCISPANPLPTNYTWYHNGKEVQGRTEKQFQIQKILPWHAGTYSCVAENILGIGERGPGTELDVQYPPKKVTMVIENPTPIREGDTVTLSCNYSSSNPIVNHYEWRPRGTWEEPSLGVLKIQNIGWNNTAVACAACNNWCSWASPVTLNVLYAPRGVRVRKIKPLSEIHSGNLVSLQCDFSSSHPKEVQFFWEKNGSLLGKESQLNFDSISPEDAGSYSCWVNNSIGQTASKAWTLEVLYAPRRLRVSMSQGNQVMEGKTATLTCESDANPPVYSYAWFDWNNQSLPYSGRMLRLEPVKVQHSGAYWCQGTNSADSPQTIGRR
Method: as §1
Surface preparation for cyno CD22 protein consisted of amine coupling to Cytiva CM5 chip (Cytiva, Cat #BR100530) using the Cytiva amine coupling kit Type 2 (Cytiva, Cat #BR100633). Following the standard amine coupling protocols, EDC and NHS from the kit were mixed 1:1 and injected over flow cells 1 and 2. Cyno CD22 was then immobilized by injecting 10 μg/mL in Sodium Acetate, pH 5.5 onto flow cell (2) for 420 seconds at 10 uL/min, yielding approximately 2500 RU of captured protein. Any active carboxy groups were then capped with 1M Ethanolamine, pH 8.5 for 420 s on flow cells 1 and 2.
as §3

## C#CCOCCOCCOc1ccc(CC(=O)NC[C@@H](O)[C@@H](O)[C@@H]2O[C@@](OCc3ccccc3)(C(=O)O)C[C@H](O)[C@H]2NC(=O)CO)cc1 [Compound 15, (2R,4S,5R,6R)-2-(benzyloxy)-6-((1R,2R)-1,2-dihydroxy-3-(2-(4-(2-(2-(prop-2-yn-1-yloxy)ethoxy)ethoxy)phenyl)acetamido)propyl)-4-hydroxy-5-(2-hydroxyacetamido)tetrahydro-2H-pyran-2-carboxylic acid]
[1]
  Kd: 1000 to 10000 nM
[2]
  Kd: 1000 to 10000 nM
[3]
  Kd: 1000 to 10000 nM

## C#Cc1ccc(CC(=O)NC[C@@H](O)[C@@H](O)[C@@H]2O[C@@](SCc3ccccc3)(C(=O)O)C[C@H](O)[C@H]2NC(=O)CO)cc1 [Compound 12, (2S,4S,5R,6R)-2-(benzylthio)-6-((1R,2R)-3-(2-(4-ethynylphenyl)acetamido)-1,2-dihydroxypropyl)-4-hydroxy-5-(2-hydroxyacetamido)tetrahydro-2H-pyran-2-carboxylic acid]
[1]
  Kd: < 1000 nM
[2]
  Kd: < 1000 nM
[3]
  Kd: < 1000 nM

## CCCNC(=O)CCOCCOCCOCCOCCn1cc(-c2ccc(CC(=O)NC[C@@H](O)[C@@H](O)[C@@H]3O[C@@](OCCCCCCOC)(C(=O)O)C[C@H](O)[C@H]3NC(=O)CO)cc2)nn1 [Compound 52, (2R,4S,5R,6R)-6-((1R,2R)-1,2-dihydroxy-3-(2-(4-(1-(15-oxo-3,6,9,12-tetraoxa-16-azanonadecyl)-1H-1,2,3-triazol-4-yl)phenyl)acetamido)propyl)-4-hydroxy-5-(2-hydroxyacetamido)-2-((6-methoxyhexyl)oxy)tetrahydro-2H-pyran-2-carboxylic acid]
[1]
  Kd: 1000 to 10000 nM
[2]
  Kd: 1000 to 10000 nM
[3]
  Kd: 1000 to 10000 nM

## C#Cc1ccc(CC(=O)NC[C@@H](O)[C@@H](O)[C@@H]2O[C@@](OCCCCCCOC)(C(=O)O)C[C@H](O)[C@H]2NC(=O)CO)cc1 [Compound 11, (2R,4S,5R,6R)-6-((1R,2R)-3-(2-(4-ethynylphenyl)acetamido)-1,2-dihydroxypropyl)-4-hydroxy-5-(2-hydroxyacetamido)-2-((6-methoxyhexyl)oxy)tetrahydro-2H-pyran-2-carboxylic acid]
[1]
  Kd: 1000 to 10000 nM
[2]
  Kd: < 1000 nM
[3]
  Kd: < 1000 nM

## C#CCOCCOCCOCc1ccc(CC(=O)NC[C@@H](O)[C@@H](O)[C@@H]2O[C@@](OCc3ccccc3)(C(=O)O)C[C@H](O)[C@H]2NC(=O)CO)cc1 [Compound 9, (2R,4S,5R,6R)-2-(benzyloxy)-6-((1R,2R)-1,2-dihydroxy-3-(2-(4-((2-(2-(prop-2-yn-1-yloxy)ethoxy)ethoxy)methyl)phenyl)acetamido)propyl)-4-hydroxy-5-(2-hydroxyacetamido)tetrahydro-2H-pyran-2-carboxylic acid]
[1]
  Kd: 1000 to 10000 nM
[2]
  Kd: 1000 to 10000 nM
[3]
  Kd: 1000 to 10000 nM

## C#Cc1ccc(CC(=O)NC[C@@H](O)[C@@H](O)[C@@H]2O[C@@](OCc3ccccc3)(C(=O)O)C[C@H](O)[C@H]2NC(=O)CO)cc1 [Compound 1, (2R,4S,5R,6R)-2-(benzyloxy)-6-((1R,2R)-3-(2-(4-ethynylphenyl)acetamido)-1,2-dihydroxypropyl)-4-hydroxy-5-(2-hydroxyacetamido)tetrahydro-2H-pyran-2-carboxylic acid]
[1]
  Kd: < 1000 nM
[2]
  Kd: < 1000 nM
[3]
  Kd: 1000 to 10000 nM

## C#CCOCCOCCOCCOCCOCCNC(=O)N[C@H]1[C@H]([C@H](O)[C@H](O)CNC(=O)Cc2ccc(Cl)cc2)O[C@@](OCc2ccccc2)(C(=O)O)C[C@@H]1O [Compound 22, (2R,4S,5R,6R)-5-(3-(3,6,9,12,15-pentaoxaoctadec-17-yn-1-yl)ureido)-2-(benzyloxy)-6-((1R,2R)-3-(2-(4-chlorophenyl)acetamido)-1,2-dihydroxypropyl)-4-hydroxytetrahydro-2H-pyran-2-carboxylic acid]
[1]
  Kd: 1000 to 10000 nM
[2]
  Kd: > 10000 nM
[3]
  Kd: 1000 to 10000 nM
